Common to all, as to format: functional
Settings in all cases: time 1 weeks

The subject of experiment [1] is Mycobacterium tuberculosis. As to the kind of experiment: Antimycobacterial activity against low-grade isoniazid resistant Mycobacterium tuberculosis clinical isolate harboring mutation in inhA promoter region incubated for 1 week by resazurin dye based fluorescence analysis. (In general: The colour change of resazurin is a common sign of viable cells or microbes.)

In experiment [2] the test system is Mycobacterium tuberculosis. Briefly: Antimycobacterial activity against high-grade isoniazid resistant Mycobacterium tuberculosis clinical isolate harboring katG S315T mutant incubated for 1 week by resazurin dye based fluorescence analysis.
The subject of experiment [3] is Mycobacterium tuberculosis. Briefly: Antimycobacterial activity against high-grade isoniazid, rifampicin, ethambutol and pyrazinamide resistant Mycobacterium tuberculosis clinical isolate harboring mutations in inhA, katG, rpoB H526D, eis genes incubated for 1 week by resazurin dye based fluorescence analysis.
For experiment [4], the system named is Mycobacterium tuberculosis. As to the kind of experiment: Antimycobacterial activity against high-grade rifampicin resistant Mycobacterium tuberculosis clinical isolate harboring rpoB S531L mutant incubated for 1 week by resazurin dye based fluorescence analysis.

The values that follow come from ChEMBL document CHEMBL5532742, “Design and Synthesis of the Linezolid Bioisosteres to Resolve the Serotonergic Toxicity Associated with Linezolid” (ACS Med Chem Lett, 2024).

The term MIC50 denotes the lowest concentration that inhibits either 50% of growth or 50% of the strains tested, depending on the study. Lower therefore signals higher susceptibility.

Structures are written as SMILES. Values after ≈ are worked out from the molar mass of the structure shown.

As for `O=C1O[C@@H](CNS(=O)(=O)c2cccs2)CN1c1ccc(N2CCOCC2)c(F)c1`, the MIC50 in experiment [1] worked out at 1.98 µM (≈ 0.874 µg/mL); in experiment [2] it was 4.52 µM (≈ 2 µg/mL); in experiment [3], 7.01 µM (≈ 3.09 µg/mL); in experiment [4], 3.32 µM (≈ 1.47 µg/mL).

Turning to `O=C(NC[C@H]1CN(c2ccc(N3CCOCC3)c(F)c2)C(=O)O1)C1CC1`, the MIC50 was found to be 0.33 µM (≈ 0.12 µg/mL) in experiment [1], 1.53 µM (≈ 0.556 µg/mL) in experiment [2], 1.99 µM (≈ 0.723 µg/mL) in experiment [3] and 0.82 µM (≈ 0.298 µg/mL) in experiment [4].

`O=C(NC[C@H]1CN(c2ccc(N3CCOCC3)c(F)c2)C(=O)O1)c1cccs1`: the MIC50 in experiment [1] was 1.78 µM (≈ 0.722 µg/mL); in experiment [2] it was 4.01 µM (≈ 1.63 µg/mL); in experiment [3], 5.01 µM (≈ 2.03 µg/mL); in experiment [4], 2.78 µM (≈ 1.13 µg/mL).

Turning to `CCS(=O)(=O)NC[C@H]1CN(c2ccc(N3CCOCC3)c(F)c2)C(=O)O1`, the MIC50 in experiment [1] worked out at 0.14 µM (≈ 0.0542 µg/mL); in experiment [2] it was 0.53 µM (≈ 0.205 µg/mL); in experiment [3], 0.92 µM (≈ 0.356 µg/mL); in experiment [4] it was 0.24 µM (≈ 0.093 µg/mL).

With `CS(=O)(=O)NC[C@H]1CN(c2ccc(N3CCOCC3)c(F)c2)C(=O)O1`, the MIC50 in experiment [1] came out at 0.85 µM (≈ 0.317 µg/mL); in experiment [2], 10.35 µM (≈ 3.86 µg/mL); in experiment [3], 8.83 µM (≈ 3.3 µg/mL); in experiment [4] it was 1.82 µM (≈ 0.68 µg/mL).

In the case of `NNC(=O)c1ccncc1` [ISONIAZID], the MIC50 in experiment [1] was 0.98 µM (≈ 0.134 µg/mL); in experiment [2] it was 11.06 µM (≈ 1.52 µg/mL); in experiment [3], over 100 µM; in experiment [4] it was 23.03 µM (≈ 3.16 µg/mL).

With `CC(=O)NC[C@H]1CN(c2ccc(N3CCOCC3)c(F)c2)C(=O)O1` [LINEZOLID], the MIC50 is 0.12 µM (≈ 0.0405 µg/mL) in experiment [1], 0.42 µM (≈ 0.142 µg/mL) in experiment [2], 0.81 µM (≈ 0.273 µg/mL) in experiment [3] and 0.24 µM (≈ 0.081 µg/mL) in experiment [4].

For the molecule `CO[C@H]1/C=C/O[C@@]2(C)Oc3c(C)c(O)c4c(O)c(c(/C=N/N5CCN(C)CC5)c(O)c4c3C2=O)NC(=O)/C(C)=C\C=C\[C@H](C)[C@H](O)[C@@H](C)[C@@H](O)[C@@H](C)[C@H](OC(C)=O)[C@@H]1C` [RIFAMPIN], the MIC50 in experiment [1] is under 0.04 µM; in experiment [2] it was under 0.04 µM; in experiment [3], over 100 µM; in experiment [4] it was 28.15 µM (≈ 23.2 µg/mL).
